According to the NIST ThermoML archive (doi:10.1021/acs.jced.6b00121):

Assay: xn = mol fraction of the nth substance listed
Details: 100 kPa, Liquid; for viscosity: Falling or rolling sphere viscometry; for mass density: Vibrating tube method

CCCCCCCCCCC [undecane] + CCCO
Details | mass density [kg/m3] | viscosity [mPa·s]
283.15 K, x1 = 0.1003 | 794.54 | 2.378
283.15 K, x1 = 0.2009 | 782.93 | 2.098
283.15 K, x1 = 0.3004 | 774.29 | 1.867
283.15 K, x1 = 0.3997 | 767.69 | 1.722
283.15 K, x1 = 0.4998 | 762.46 | 1.585
283.15 K, x1 = 0.6005 | 758.08 | 1.482
283.15 K, x1 = 0.6974 | 754.68 | 1.412
283.15 K, x1 = 0.8 | 751.72 | 1.371
283.15 K, x1 = 0.8963 | 749.45 | 1.356
283.15 K, x1 = 1 | 747.78 | 1.371
288.15 K, x1 = 0.1003 | 790.63 | 2.104
288.15 K, x1 = 0.2009 | 779.03 | 1.861
288.15 K, x1 = 0.3004 | 770.41 | 1.69
288.15 K, x1 = 0.3997 | 763.82 | 1.539
288.15 K, x1 = 0.4998 | 758.6 | 1.426
288.15 K, x1 = 0.6005 | 754.26 | 1.338
288.15 K, x1 = 0.6974 | 750.86 | 1.28
288.15 K, x1 = 0.8 | 747.96 | 1.246
288.15 K, x1 = 0.8963 | 745.71 | 1.235
288.15 K, x1 = 1 | 744.06 | 1.249
293.15 K, x1 = 0.1003 | 786.69 | 1.865
293.15 K, x1 = 0.2009 | 775.1 | 1.656
293.15 K, x1 = 0.3004 | 766.5 | 1.515
293.15 K, x1 = 0.3997 | 759.92 | 1.382
293.15 K, x1 = 0.4998 | 754.73 | 1.286
293.15 K, x1 = 0.6005 | 750.41 | 1.214
293.15 K, x1 = 0.6974 | 747.04 | 1.165
293.15 K, x1 = 0.8 | 744.17 | 1.138
293.15 K, x1 = 0.8963 | 741.96 | 1.13
293.15 K, x1 = 1 | 740.35 | 1.145
298.15 K, x1 = 0.1003 | 782.72 | 1.655
298.15 K, x1 = 0.2009 | 771.14 | 1.481
298.15 K, x1 = 0.3004 | 762.56 | 1.357
298.15 K, x1 = 0.3997 | 756 | 1.246
298.15 K, x1 = 0.4998 | 750.83 | 1.166
298.15 K, x1 = 0.6005 | 746.54 | 1.106
298.15 K, x1 = 0.6974 | 743.2 | 1.065
298.15 K, x1 = 0.8 | 740.37 | 1.044
298.15 K, x1 = 0.8963 | 738.2 | 1.038
298.15 K, x1 = 1 | 736.64 | 1.062
303.15 K, x1 = 0.1003 | 778.73 | 1.487
303.15 K, x1 = 0.2009 | 767.15 | 1.332
303.15 K, x1 = 0.3004 | 758.59 | 1.223
303.15 K, x1 = 0.3997 | 752.04 | 1.129
303.15 K, x1 = 0.4998 | 746.9 | 1.061
303.15 K, x1 = 0.6005 | 742.64 | 1.012
303.15 K, x1 = 0.6974 | 739.34 | 0.978
303.15 K, x1 = 0.8 | 736.55 | 0.961
303.15 K, x1 = 0.8963 | 734.41 | 0.957
303.15 K, x1 = 1 | 732.93 | 0.982
308.15 K, x1 = 0.1003 | 774.69 | 1.333
308.15 K, x1 = 0.2009 | 763.12 | 1.196
308.15 K, x1 = 0.3004 | 754.57 | 1.106
308.15 K, x1 = 0.3997 | 748.05 | 1.025
308.15 K, x1 = 0.4998 | 742.93 | 0.968
308.15 K, x1 = 0.6005 | 738.71 | 0.929
308.15 K, x1 = 0.6974 | 735.45 | 0.901
308.15 K, x1 = 0.8 | 732.7 | 0.886
308.15 K, x1 = 0.8963 | 730.61 | 0.885
308.15 K, x1 = 1 | 729.23 | 0.91
313.15 K, x1 = 0.1003 | 770.6 | 1.198
313.15 K, x1 = 0.2009 | 759.04 | 1.08
313.15 K, x1 = 0.3004 | 750.52 | 1.004
313.15 K, x1 = 0.3997 | 744.02 | 0.935
313.15 K, x1 = 0.4998 | 738.93 | 0.888
313.15 K, x1 = 0.6005 | 734.75 | 0.855
313.15 K, x1 = 0.6974 | 731.52 | 0.833
313.15 K, x1 = 0.8 | 728.83 | 0.821
313.15 K, x1 = 0.8963 | 726.79 | 0.822
313.15 K, x1 = 1 | 725.53 | 0.847
318.15 K, x1 = 0.1003 | 766.466 | 1.079
318.15 K, x1 = 0.2009 | 754.911 | 0.979
318.15 K, x1 = 0.3004 | 746.411 | 0.913
318.15 K, x1 = 0.3997 | 739.944 | 0.856
318.15 K, x1 = 0.4998 | 734.891 | 0.816
318.15 K, x1 = 0.6005 | 730.749 | 0.789
318.15 K, x1 = 0.6974 | 727.572 | 0.772
318.15 K, x1 = 0.8 | 724.934 | 0.763
318.15 K, x1 = 0.8963 | 722.953 | 0.765
318.15 K, x1 = 1 | 721.818 | 0.79
323.15 K, x1 = 0.1003 | 762.28 | 0.976
323.15 K, x1 = 0.2009 | 750.73 | 0.889
323.15 K, x1 = 0.3004 | 742.26 | 0.828
323.15 K, x1 = 0.3997 | 735.82 | 0.786
323.15 K, x1 = 0.4998 | 730.81 | 0.754
323.15 K, x1 = 0.6005 | 726.72 | 0.732
323.15 K, x1 = 0.6974 | 723.59 | 0.717
323.15 K, x1 = 0.8 | 721.01 | 0.712
323.15 K, x1 = 0.8963 | 719.09 | 0.715
323.15 K, x1 = 1 | 718.11 | 0.74
328.15 K, x1 = 0.1003 | 758.02 | 0.885
328.15 K, x1 = 0.2009 | 746.49 | 0.811
328.15 K, x1 = 0.3004 | 738.04 | 0.76
328.15 K, x1 = 0.3997 | 731.64 | 0.723
328.15 K, x1 = 0.4998 | 726.68 | 0.698
328.15 K, x1 = 0.6005 | 722.64 | 0.681
328.15 K, x1 = 0.6974 | 719.57 | 0.669
328.15 K, x1 = 0.8 | 717.05 | 0.665
328.15 K, x1 = 0.8963 | 715.21 | 0.669
328.15 K, x1 = 1 | 714.39 | 0.692
333.15 K, x1 = 0.1003 | 753.7 | 0.805
333.15 K, x1 = 0.2009 | 742.18 | 0.741
333.15 K, x1 = 0.3004 | 733.76 | 0.698
333.15 K, x1 = 0.3997 | 727.41 | 0.668
333.15 K, x1 = 0.4998 | 722.5 | 0.648
333.15 K, x1 = 0.6005 | 718.52 | 0.634
333.15 K, x1 = 0.6974 | 715.51 | 0.625
333.15 K, x1 = 0.8 | 713.06 | 0.623
333.15 K, x1 = 0.8963 | 711.3 | 0.628
333.15 K, x1 = 1 | 710.68 | 0.651
338.15 K, x1 = 0.1003 | 749.3 | 0.734
338.15 K, x1 = 0.2009 | 737.8 | 0.68
338.15 K, x1 = 0.3004 | 729.43 | 0.645
338.15 K, x1 = 0.3997 | 723.12 | 0.619
338.15 K, x1 = 0.4998 | 718.27 | 0.604
338.15 K, x1 = 0.6005 | 714.36 | 0.593
338.15 K, x1 = 0.6974 | 711.41 | 0.586
338.15 K, x1 = 0.8 | 709.04 | 0.586
338.15 K, x1 = 0.8963 | 707.37 | 0.592
338.15 K, x1 = 1 | 706.95 | 0.615
343.15 K, x1 = 0.1003 | 744.8 | 0.672
343.15 K, x1 = 0.2009 | 733.33 | 0.626
343.15 K, x1 = 0.3004 | 725.01 | 0.596
343.15 K, x1 = 0.3997 | 718.77 | 0.576
343.15 K, x1 = 0.4998 | 713.98 | 0.563
343.15 K, x1 = 0.6005 | 710.14 | 0.555
343.15 K, x1 = 0.6974 | 707.27 | 0.551
343.15 K, x1 = 0.8 | 704.99 | 0.552
343.15 K, x1 = 0.8963 | 703.43 | 0.558
343.15 K, x1 = 1 | 703.22 | 0.58
348.15 K, x1 = 0.1003 | 740.24 | 0.617
348.15 K, x1 = 0.2009 | 728.8 | 0.578
348.15 K, x1 = 0.3004 | 720.53 | 0.553
348.15 K, x1 = 0.3997 | 714.34 | 0.537
348.15 K, x1 = 0.4998 | 709.64 | 0.527
348.15 K, x1 = 0.6005 | 705.88 | 0.522
348.15 K, x1 = 0.6974 | 703.09 | 0.519
348.15 K, x1 = 0.8 | 700.9 | 0.521
348.15 K, x1 = 0.8963 | 699.45 | 0.528
348.15 K, x1 = 1 | 699.47 | 0.549
353.15 K, x1 = 0.1003 | 735.57 | 0.568
353.15 K, x1 = 0.2009 | 724.18 | 0.535
353.15 K, x1 = 0.3004 | 715.97 | 0.515
353.15 K, x1 = 0.3997 | 709.86 | 0.502
353.15 K, x1 = 0.4998 | 705.23 | 0.495
353.15 K, x1 = 0.6005 | 701.57 | 0.492
353.15 K, x1 = 0.6974 | 698.86 | 0.49
353.15 K, x1 = 0.8 | 696.77 | 0.492
353.15 K, x1 = 0.8963 | 695.46 | 0.501
353.15 K, x1 = 1 | 695.72 | 0.522
358.15 K, x1 = 0.1003 | 730.81 | 0.525
358.15 K, x1 = 0.2009 | 719.45 | 0.497
358.15 K, x1 = 0.3004 | 711.32 | 0.481
358.15 K, x1 = 0.3997 | 705.29 | 0.471
358.15 K, x1 = 0.4998 | 700.75 | 0.466
358.15 K, x1 = 0.6005 | 697.19 | 0.465
358.15 K, x1 = 0.6974 | 694.58 | 0.463
358.15 K, x1 = 0.8 | 692.62 | 0.467
358.15 K, x1 = 0.8963 | 691.44 | 0.476
358.15 K, x1 = 1 | 691.96 | 0.497
363.15 K, x1 = 0.1003 | 725.93 | 0.4864
363.15 K, x1 = 0.2009 | 714.64 | 0.4635
363.15 K, x1 = 0.3004 | 706.59 | 0.4506
363.15 K, x1 = 0.3997 | 700.67 | 0.443
363.15 K, x1 = 0.4998 | 696.22 | 0.4401
363.15 K, x1 = 0.6005 | 692.77 | 0.4396
363.15 K, x1 = 0.6974 | 690.27 | 0.4398
363.15 K, x1 = 0.8 | 688.42 | 0.4438
363.15 K, x1 = 0.8963 | 687.41 | 0.4531
363.15 K, x1 = 1 | 688.18 | 0.475
